Data from patent US20240307350A1, “5-METHOXY-N,N-DIMETHYLTRYPTAMINE (5-MEO-DMT) FOR TREATING DEPRESSION” (GH RESEARCH IRELAND LIMITED, priority 2019, published 2024).

Legend:
[1] = tested on: patients with personality trait disturbance or anxiety; conditions: LSD as an aid to psychotherapy; cited from earlier work
[2] = tested on: patients with alcohol dependence; conditions: therapy with LSD; cited from earlier work
5-HT2A receptor = 5-HT2A receptor (Homo sapiens, UniProt P28223); conditions: compared with 5-MeO-DMT; cited from earlier work
5-HT2A receptor, sequence (P28223 whole entry): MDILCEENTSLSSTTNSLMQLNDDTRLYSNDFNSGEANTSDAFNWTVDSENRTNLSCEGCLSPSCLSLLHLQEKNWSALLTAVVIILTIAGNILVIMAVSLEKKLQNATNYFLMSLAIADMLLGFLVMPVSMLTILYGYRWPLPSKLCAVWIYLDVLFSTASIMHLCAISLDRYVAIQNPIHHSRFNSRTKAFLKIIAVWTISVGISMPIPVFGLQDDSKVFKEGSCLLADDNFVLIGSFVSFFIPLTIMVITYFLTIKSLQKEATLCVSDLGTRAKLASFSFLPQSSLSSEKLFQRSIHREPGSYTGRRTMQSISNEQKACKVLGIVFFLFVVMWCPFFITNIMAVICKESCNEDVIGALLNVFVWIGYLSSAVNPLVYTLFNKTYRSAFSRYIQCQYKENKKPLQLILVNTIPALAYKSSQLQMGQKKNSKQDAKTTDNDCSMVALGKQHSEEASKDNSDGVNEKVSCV

[3] = Clinical trial in healthy volunteers: 5-MeO-DMT and bufotenine plasma levels; format: in vivo, human; conditions: all other samples (1 hour and 3 hours) after inhaled 5-MeO-DMT
Protocol: A clinical trial was performed in which 5-MeO-DMT free base (purity not less than 99%) at different dose levels was administered via inhalation (as described in Example 1) in a single day to healthy volunteers who had prior experiences with the use of synthetic or naturally-occurring psychedelics. The trial was reviewed and approved by the relevant national competent authority and local medical ethics committee. The trial consisted of two parts: Part A, where single doses of 5-MeO-DMT dosage amounts of 2 mg, 6 mg, 12 mg and 18 mg were administered; and Part B, where an initial 5-MeO-DMT dosage amount of 6 mg was administered, and then, unless the participant had already experienced a peak psychedelic experience based on the PPEQ or the supervising physician had decided that further dose increases were inappropriate based on observed side effects, further subsequent dosage amounts of 12 mg and 18 mg were administered with about 3 hours in between each administration. Participants in Part A only received one dose and were not allowed to receive higher doses in later parts of Part A and were not allowed to participate in Part B. Participants were closely monitored for 3.5 hours after the last dose, with additional follow-up visits 1 day and 7 days after dosing. Various safety related measures (e.g., adverse event reporting, safety laboratory analyses, vital signs, ECG, CADSS, PVT, DSST, Prospective Memory Task (PMT)) as well as measures of the intensity of the psychedelic effects (MEQ30, ASC, PPEQ, subjective description of the psychedelic experience) were recorded. Pharmacokinetic analysis of 5-MeO-DMT and bufotenine plasma levels was performed at 1 hour and 3 hours after drug administration in Part A, and at 3 hours after drug administration in Part B.

SMILES | patients with an outcome of "much improved" or "improved" [1] | patients changed (stop drinking or are much improved) [2] [%] | affinity for the 5-HT2A receptor (5-HT2A receptor) | plasma levels of the 5-MeO-DMT metabolite bufotenine [3]
CCN(CC)C(=O)[C@@H]1C=C2c3cccc4[nH]cc(c34)C[C@H]2N(C)C1 [LSD, lysergic acid diethylamide] | over 90% | 50 |  | 
CN(C)CCc1c[nH]c2ccc(O)cc12 [bufotenine] |  |  | much higher affinity than 5-MeO-DMT | undetectable
